Literature values as cited in patent US20210251946A1, “CANNABINOID-[…], FORMULATIONS, AND USES THEREOF FOR TREATING AMYOTROPHIC LATERAL SCLEROSIS” (GREEN RUSH SCIENCE, LLC, priority 2020, published 2021).

Experiments:
ALS hSOD(G93A) mice [1] = conditions: daily intraperitoneal administration, initiated after disease onset
ALS hSOD(G93A) mice [2] = conditions: intraperitoneally, beginning after onset of motor impairment and tremor (at 90 days old)

Structure (SMILES): CN1CCCCC1Cn1cc(C(=O)c2cc([N+](=O)[O-])ccc2I)c2ccccc21 (stereo not drawn) [AM-1241]
- increase of survival (ALS hSOD(G93A) mice [1]): 56%
- motor impairment (ALS hSOD(G93A) mice [1]): delayed motor impairment

Structure (SMILES): Cc1c(C(=O)c2cccc3ccccc23)c2cccc3c2n1[C@H](CN1CCOCC1)CO3 [WIN 55,212-2]
- disease progression (ALS hSOD(G93A) mice [2]): significant delay in disease progression
